Ki data for 35 molecules are collected here from patent publication US8030321B2, “Benzofuro- and benzothienopyrimidine modulators of the histamine H4 receptor” (Janssen Pharmaceutica, NV, priority 2006, dated 2011).

The target in this assay is T1, human histamine H4 receptor (Homo sapiens, UniProt Q9H3N8).
T1 construct: expressed in transfected cells; host or cells: SK-N-MC cells or COS7 cells, transiently transfected; cell membranes used
Put plainly: Binding Assay on Recombinant Human Histamine H4 Receptor. Conditions: competition binding with 3H-histamine (5 nM), membranes of SK-N-MC or COS7 cells expressing human H4 receptor; Cheng-Prusoff, KD 5 nM; average of results obtained; read-out: Ki. Summed up: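 Membranes from SK-N-MC or COS7 cells transiently transfected with human H4 receptor were incubated with ³H-histamine (5-70 nM); nonspecific binding defined with 10,000 nM histamine. Bound radioactivity collected by GF/C filtration and scintillation counting; test compounds assessed by displacement of ³H-ligand binding across concentrations.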

Each structure is given as a SMILES string. Counter-ions that a name gives are not always drawn. A value given as a limit tells only on which side of the number the result lay.

T1 sequence (Q9H3N8 whole entry): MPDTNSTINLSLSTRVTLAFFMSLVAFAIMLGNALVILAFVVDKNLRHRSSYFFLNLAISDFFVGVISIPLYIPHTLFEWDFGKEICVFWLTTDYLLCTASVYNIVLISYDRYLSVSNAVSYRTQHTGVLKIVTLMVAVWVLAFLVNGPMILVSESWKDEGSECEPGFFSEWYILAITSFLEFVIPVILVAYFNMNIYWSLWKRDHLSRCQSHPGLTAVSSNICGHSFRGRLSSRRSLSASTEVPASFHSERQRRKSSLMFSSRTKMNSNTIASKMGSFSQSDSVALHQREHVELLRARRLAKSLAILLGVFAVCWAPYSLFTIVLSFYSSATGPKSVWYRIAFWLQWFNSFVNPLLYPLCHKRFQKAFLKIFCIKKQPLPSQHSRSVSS

Take `COc1ccc2oc3c(N4CCN(C)CC4)nc(NCCO)nc3c2c1` [Example 118, 2-[8-Methoxy-4-(4-methyl-piperazin-1-yl)-benzo[4,5]furo[3,2-d]pyrimidin-2-ylamino]-ethanol]: the inhibitory constant (Ki) (as a rule, a dissociation constant, usually derived from enzyme kinetics or from competition with a known ligand) was determined as 200 nM. Next, `CN1CCN(c2nc(NC3CC3)nc3c2oc2ccc(Cl)cc23)CC1` [Example 119, [8-Chloro-4-(4-methyl-piperazin-1-yl)-benzo[4,5]furo[3,2-d]pyrimidin-2-yl]-cyclopropyl-amine]: 350 nM; `CC(C)CNc1nc(N2CCN(C)CC2)c2oc3ccc(Cl)cc3c2n1` [Example 120, [8-Chloro-4-(4-methyl-piperazin-1-yl)-benzo[4,5]furo[3,2-d]pyrimidin-2-yl]-isobutyl-amine]: 3330 nM. Under `C=CCNc1nc(N2CCN(C)CC2)c2oc3ccc(Cl)cc3c2n1` [Example 121, Allyl-[8-chloro-4-(4-methyl-piperazin-1-yl)-benzo[4,5]furo[3,2-d]pyrimidin-2-yl]-amine] stands 220 nM; under `CN1CCN(c2nc(NCCCN)nc3c2oc2ccc(Cl)cc23)CC1` [Example 122, N^1-[8-Chloro-4-(4-methyl-piperazin-1-yl)-benzo[4,5]furo[3,2-d]pyrimidin-2-yl]-propane-1,3-diamine], 300 nM. Consider `CSCCNc1nc(N2CCN(C)CC2)c2oc3ccc(Cl)cc3c2n1` [Example 123, [8-Chloro-4-(4-methyl-piperazin-1-yl)-benzo[4,5]furo[3,2-d]pyrimidin-2-yl]-(2-methylsulfanyl-ethyl)-amine], for which the Ki stood at 520 nM. Next, `CNc1nc(N2CCN(C)CC2)c2oc3ccc(Cl)cc3c2n1` [Example 124, [8-Chloro-4-(4-methyl-piperazin-1-yl)-benzo[4,5]furo[3,2-d]pyrimidin-2-yl]-methyl-amine]: 97 nM; `OCCNc1nc(N2C[C@@H]3C[C@H]2CN3)c2oc3ccc(Cl)cc3c2n1` [Example 125, (S,S)-2-[8-Chloro-4-(2,5-diaza-bicyclo[2.2.1]hept-2-yl)-benzo[4,5]furo[3,2-d]pyrimidin-2-ylamino]-ethanol]: 580 nM; `CNC1CCN(c2nc(NCCO)nc3c2oc2ccc(Cl)cc23)C1` (centres unmarked) [Example 126, 2-[8-Chloro-4-(3-methylamino-pyrrolidin-1-yl)-benzo[4,5]furo[3,2-d]pyrimidin-2-ylamino]-ethanol]: 210 nM. Under `CN1CCCN(c2nc(NCCO)nc3c2oc2ccc(Cl)cc23)CC1` [Example 127, 2-[8-Chloro-4-(4-methyl-[1,4]diazepan-1-yl)-benzo[4,5]furo[3,2-d]pyrimidin-2-ylamino]-ethanol] stands 260 nM. `Nc1nc(N2CC(N)C2)c2oc3ccc(Cl)cc3c2n1` [Example 129, 4-(3-Amino-azetidin-1-yl)-8-chloro-benzo[4,5]furo[3,2-d]pyrimidin-2-ylamine trifluoroacetic acid salt]: the Ki was 19 nM. As to `C[C@@H]1CN(c2nc(N)nc3c2oc2ccc(Cl)cc23)[C@@H](C)CN1` [Example 130, (2S,5R)-8-Chloro-4-(2,5-dimethyl-piperazin-1-yl)-benzo[4,5]furo[3,2-d]pyrimidin-2-ylamine trifluoroacetic acid salt], the Ki was 140 nM. Next, `C[C@H]1CNCCN1c1nc(N)nc2c1oc1ccc(Cl)cc12` [Example 131, (S)-8-Chloro-4-(2-methyl-piperazin-1-yl)-benzo[4,5]furo[3,2-d]pyrimidin-2-ylamine trifluoroacetic acid salt]: 60 nM; `C[C@@H]1CNCCN1c1nc(N)nc2c1oc1ccc(Cl)cc12` [Example 132, (R)-8-Chloro-4-(2-methyl-piperazin-1-yl)-benzo[4,5]furo[3,2-d]pyrimidin-2-ylamine trifluoroacetic acid salt]: 120 nM; `C[C@H]1CN(c2nc(N)nc3c2oc2ccc(Cl)cc23)CCN1` [Example 133, (S)-8-Chloro-4-(5-methyl-piperazin-1-yl)-benzo[4,5]furo[3,2-d]pyrimidin-2-ylamine trifluoroacetic acid salt]: 5.7 nM.

Consider `C[C@@H]1CN(c2nc(N)nc3c2oc2ccc(Cl)cc23)CCN1` [Example 134, (R)-8-Chloro-4-(5-methyl-piperazin-1-yl)-benzo[4,5]furo[3,2-d]pyrimidin-2-ylamine trifluoroacetic acid salt], for which the inhibition constant (Ki) was found to be 50 nM.

With `CN1CCN(c2nc(N)nc3c2oc2cccc(F)c23)CC1` [Example 135, 9-Fluoro-4-(4-methyl-piperazin-1-yl)-benzo[4,5]furo[3,2-d]pyrimidin-2-ylamine trifluoroacetic acid salt], the inhibitory constant (Ki) was determined as 21 nM. As to `CN[C@@H]1CCN(c2nc(N)nc3c2oc2cccc(F)c23)C1` [Example 136, (R)-9-Fluoro-4-(3-methylamino-pyrrolidin-1-yl)-benzo[4,5]furo[3,2-d]pyrimidin-2-ylamine trifluoroacetic acid salt], the inhibition constant (Ki) is 10 nM.

Take `Nc1nc(N2CCNCC2)c2oc3cccc(F)c3c2n1` [Example 137, 9-Fluoro-4-piperazin-1-yl-benzo[4,5]furo[3,2-d]pyrimidin-2-ylamine trifluoroacetic acid salt]: the inhibition constant Ki worked out at 150 nM. Under `Nc1nc(N2CC(N)C2)c2oc3cccc(F)c3c2n1` [Example 138, 4-(3-Amino-azetidin-1-yl)-9-fluoro-benzo[4,5]furo[3,2-d]pyrimidin-2-ylamine trifluoroacetic acid salt] stands above 10000 nM.

Take `CN1CCN(c2nc(N)nc3c2oc2ccc(C(F)(F)F)cc23)CC1` [Example 139, 4-(4-Methyl-piperazin-1-yl)-8-trifluoromethyl-benzo[4,5]furo[3,2-d]pyrimidin-2-ylamine trifluoroacetic acid salt]: the inhibitory constant (Ki) came to 0.8 nM. Next, `CN[C@@H]1CCN(c2nc(N)nc3c2oc2ccc(C(F)(F)F)cc23)C1` [Example 140, (R)-4-(3-Methylamino-pyrrolidin-1-yl)-8-trifluoromethyl-benzo[4,5]furo[3,2-d]pyrimidin-2-ylamine trifluoroacetic acid salt]: 1 nM. Under `Nc1nc(N2CCC[C@H](N)C2)c2oc3ccc(C(F)(F)F)cc3c2n1` [Example 141, (S)-4-(3-Amino-piperidin-1-yl)-8-trifluoromethyl-benzo[4,5]furo[3,2-d]pyrimidin-2-ylamine trifluoroacetic acid salt] stands 43 nM; under `Nc1nc(N2CCNCC2)c2oc3ccc(C(F)(F)F)cc3c2n1` [Example 142, 4-piperazin-1-yl-8-trifluoromethyl-benzo[4,5]furo[3,2-d]pyrimidin-2-ylamine trifluoroacetic acid salt], 13 nM; under `Nc1nc(N2C[C@@H]3C[C@H]2CN3)c2oc3ccc(C(F)(F)F)cc3c2n1` [Example 143, (S,S)-4-(2,5-Diaza-bicyclo[2.2.1]hept-2-yl)-8-trifluoromethyl-benzo[4,5]furo[3,2-d]pyrimidin-2-ylamine citrate salt], 270 nM. Next, `Nc1nc(N2CC(N)C2)c2oc3ccc(C(F)(F)F)cc3c2n1` [Example 144, 4-(3-Amino-azetidin-1-yl)-8-trifluoromethyl-benzo[4,5]furo[3,2-d]pyrimidin-2-ylamine]: above 10000 nM. Consider `CN1CCN(c2nc(N)nc3c2oc2ccc(F)c(F)c23)CC1` [Example 145, 8,9-Difluoro-4-(4-methyl-piperazin-1-yl)-benzo[4,5]furo[3,2-d]pyrimidin-2-ylamine trifluoroacetic acid salt], for which the Ki was 160 nM. Next, `Nc1nc(N2CCNCC2)c2oc3ccc(F)c(F)c3c2n1` [Example 146, 8,9-Difluoro-4-piperazin-1-yl-benzo[4,5]furo[3,2-d]pyrimidin-2-ylamine trifluoroacetic acid salt]: 1280 nM. Next, `Nc1nc(N2CCC[C@H](N)C2)c2oc3ccc(F)c(F)c3c2n1` [Example 147, (S)-4-(3-Amino-piperidin-1-yl)-8,9-difluoro-benzo[4,5]furo[3,2-d]pyrimidin-2-ylamine trifluoroacetic acid salt]: above 10000 nM; `CN[C@@H]1CCN(c2nc(N)nc3c2oc2ccc(F)c(F)c23)C1` [Example 148, (R)-8,9-Difluoro-4-(3-methylamino-pyrrolidin-1-yl)-benzo[4,5]furo[3,2-d]pyrimidin-2-ylamine trifluoroacetic acid salt]: 39 nM.

As for `Nc1nc(N2C[C@@H]3C[C@H]2CN3)c2oc3ccc(F)c(F)c3c2n1` [Example 149, (S,S)-4-(2,5-Diaza-bicyclo[2.2.1]hept-2-yl)-8,9-difluoro-benzo[4,5]furo[3,2-d]pyrimidin-2-ylamine trifluoroacetic acid salt], the Ki is above 10000 nM. Under `Nc1nc(N2CC(N)C2)c2oc3ccc(F)c(F)c3c2n1` [Example 150, 4-(3-Amino-azetidin-1-yl)-8,9-difluoro-benzo[4,5]furo[3,2-d]pyrimidin-2-ylamine trifluoroacetic acid salt] stands 5380 nM; under `CN1CCN(c2nc(N)nc3c2oc2cccc(Cl)c23)CC1` [Example 151, 9-Chloro-4-(4-methyl-piperazin-1-yl)-benzo[4,5]furo[3,2-d]pyrimidin-2-ylamine trifluoroacetic acid salt], 74 nM. Under `CN[C@@H]1CCN(c2nc(N)nc3c2oc2cccc(Cl)c23)C1` [Example 152, (R)-9-Chloro-4-(3-methylamino-pyrrolidin-1-yl)-benzo[4,5]furo[3,2-d]pyrimidin-2-ylamine trifluoroacetic acid salt] stands 87 nM. Next, `Nc1nc(N2CCNCC2)c2oc3cccc(Cl)c3c2n1` [Example 153, 9-Chloro-4-piperazin-1-yl-benzo[4,5]furo[3,2-d]pyrimidin-2-ylamine trifluoroacetic acid salt]: 1030 nM.
